Measured values from BindingDB's records for PubMed 20126400 (University of Oklahoma, 2010).

How the values were obtained:
Assay in all cases: Ray2010 Assay 74
[1] = molecular target: Histamine H4 receptor (Homo sapiens, UniProt Q9H3N8)
Source text: (§1) Table S2 shows raw Ki data for the current study combined with data collected from the literature for the ten additional compounds.

[2] = molecular target: Histamine H1 receptor (Homo sapiens, UniProt P35367)
Source text: as §1

[3] = molecular target: 5-hydroxytryptamine receptor 1B (Homo sapiens, UniProt P28222)
Sequence of 5-hydroxytryptamine receptor 1B (P28222 whole entry): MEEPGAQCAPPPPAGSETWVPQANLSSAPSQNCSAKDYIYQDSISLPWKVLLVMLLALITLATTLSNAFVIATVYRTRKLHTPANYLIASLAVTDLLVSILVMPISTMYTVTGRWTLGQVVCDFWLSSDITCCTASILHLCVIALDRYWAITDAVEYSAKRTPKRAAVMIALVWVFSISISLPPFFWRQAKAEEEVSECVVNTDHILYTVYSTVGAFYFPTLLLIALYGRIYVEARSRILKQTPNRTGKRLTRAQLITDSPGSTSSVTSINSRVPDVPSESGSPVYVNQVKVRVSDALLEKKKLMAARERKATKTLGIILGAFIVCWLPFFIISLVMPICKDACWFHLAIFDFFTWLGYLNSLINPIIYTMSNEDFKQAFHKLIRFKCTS
Source text: as §1

[4] = molecular target: T1, Alpha-2A adrenergic receptor (Homo sapiens, UniProt P08913)
T1 sequence (P08913 whole entry): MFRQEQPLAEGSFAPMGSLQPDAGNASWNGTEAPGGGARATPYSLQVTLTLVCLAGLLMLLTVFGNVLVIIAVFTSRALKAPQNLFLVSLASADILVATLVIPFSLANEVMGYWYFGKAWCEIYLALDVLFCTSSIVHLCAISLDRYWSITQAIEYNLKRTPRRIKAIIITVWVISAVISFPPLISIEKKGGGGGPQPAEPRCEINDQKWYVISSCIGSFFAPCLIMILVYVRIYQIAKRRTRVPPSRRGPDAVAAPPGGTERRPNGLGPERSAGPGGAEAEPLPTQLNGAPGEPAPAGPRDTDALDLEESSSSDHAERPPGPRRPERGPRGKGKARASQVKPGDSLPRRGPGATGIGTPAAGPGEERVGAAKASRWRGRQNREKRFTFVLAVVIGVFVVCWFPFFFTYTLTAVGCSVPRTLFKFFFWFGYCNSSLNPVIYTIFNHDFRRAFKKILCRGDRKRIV
Source text: as §1

[5] = molecular target: Glutamate receptor ionotropic, NMDA 2A (Homo sapiens, UniProt Q12879)
Source text: as §1

[6] = molecular target: T2, Alpha-1A adrenergic receptor (Homo sapiens, UniProt P35348)
T2 sequence (P35348 whole entry): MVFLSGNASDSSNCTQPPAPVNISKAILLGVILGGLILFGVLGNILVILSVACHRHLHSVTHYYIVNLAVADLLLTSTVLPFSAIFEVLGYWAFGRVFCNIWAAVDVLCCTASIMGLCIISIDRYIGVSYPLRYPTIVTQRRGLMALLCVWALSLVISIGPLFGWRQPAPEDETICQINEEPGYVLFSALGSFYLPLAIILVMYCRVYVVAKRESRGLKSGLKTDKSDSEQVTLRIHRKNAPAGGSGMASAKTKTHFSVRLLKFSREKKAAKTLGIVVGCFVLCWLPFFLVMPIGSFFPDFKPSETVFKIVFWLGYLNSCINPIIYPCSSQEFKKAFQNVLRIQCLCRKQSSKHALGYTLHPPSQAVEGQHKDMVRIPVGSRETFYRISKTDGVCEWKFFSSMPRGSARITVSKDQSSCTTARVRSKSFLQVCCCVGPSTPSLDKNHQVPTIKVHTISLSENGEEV
Source text: as §1

[7] = molecular target: Sodium-dependent noradrenaline transporter (Homo sapiens, UniProt P23975)
Sequence of Sodium-dependent noradrenaline transporter (P23975 whole entry): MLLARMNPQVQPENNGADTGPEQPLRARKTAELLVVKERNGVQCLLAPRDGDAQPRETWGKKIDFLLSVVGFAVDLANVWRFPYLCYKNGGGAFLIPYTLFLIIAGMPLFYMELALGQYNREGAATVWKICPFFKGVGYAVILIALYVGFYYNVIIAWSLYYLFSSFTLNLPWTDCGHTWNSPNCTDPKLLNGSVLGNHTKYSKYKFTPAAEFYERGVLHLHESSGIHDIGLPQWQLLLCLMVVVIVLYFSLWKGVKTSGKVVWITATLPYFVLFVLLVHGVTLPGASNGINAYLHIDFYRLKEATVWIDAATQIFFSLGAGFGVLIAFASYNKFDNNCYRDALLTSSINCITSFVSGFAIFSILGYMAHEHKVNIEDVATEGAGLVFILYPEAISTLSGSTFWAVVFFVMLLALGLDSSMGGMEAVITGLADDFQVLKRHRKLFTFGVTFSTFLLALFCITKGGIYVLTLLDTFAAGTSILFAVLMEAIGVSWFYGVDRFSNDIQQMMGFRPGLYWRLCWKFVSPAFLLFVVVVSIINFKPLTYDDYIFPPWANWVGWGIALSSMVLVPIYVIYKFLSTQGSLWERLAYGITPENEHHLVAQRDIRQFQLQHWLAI
Source text: as §1

[8] = molecular target: T3, D(4) dopamine receptor (Homo sapiens, UniProt P21917)
T3 sequence (P21917 whole entry): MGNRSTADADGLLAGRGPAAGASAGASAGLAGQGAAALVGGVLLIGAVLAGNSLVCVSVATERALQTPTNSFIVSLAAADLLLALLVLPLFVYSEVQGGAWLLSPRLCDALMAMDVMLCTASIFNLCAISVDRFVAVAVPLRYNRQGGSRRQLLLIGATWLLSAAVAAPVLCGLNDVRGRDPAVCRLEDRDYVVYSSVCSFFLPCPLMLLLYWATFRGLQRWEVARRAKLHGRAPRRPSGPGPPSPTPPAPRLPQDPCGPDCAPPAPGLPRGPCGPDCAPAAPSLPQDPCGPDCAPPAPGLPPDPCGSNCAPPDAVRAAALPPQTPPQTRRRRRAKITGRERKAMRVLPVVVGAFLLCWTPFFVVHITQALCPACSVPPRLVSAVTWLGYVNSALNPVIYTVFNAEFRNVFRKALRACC
Source text: as §1

[9] = molecular target: D(2) dopamine receptor (Homo sapiens, UniProt P14416)
Sequence of D(2) dopamine receptor (P14416 whole entry): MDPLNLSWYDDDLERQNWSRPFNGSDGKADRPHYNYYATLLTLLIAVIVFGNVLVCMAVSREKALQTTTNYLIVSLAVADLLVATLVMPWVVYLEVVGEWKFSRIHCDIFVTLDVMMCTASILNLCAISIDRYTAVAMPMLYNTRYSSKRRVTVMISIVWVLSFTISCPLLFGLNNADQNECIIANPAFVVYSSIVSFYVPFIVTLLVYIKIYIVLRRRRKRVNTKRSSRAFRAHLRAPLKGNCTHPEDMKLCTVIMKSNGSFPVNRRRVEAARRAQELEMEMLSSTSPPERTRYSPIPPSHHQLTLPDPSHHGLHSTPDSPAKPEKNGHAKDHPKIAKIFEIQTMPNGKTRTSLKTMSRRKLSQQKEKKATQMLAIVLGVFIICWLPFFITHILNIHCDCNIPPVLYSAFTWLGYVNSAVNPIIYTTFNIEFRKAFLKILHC
Source text: as §1

[10] = molecular target: T4, Muscarinic acetylcholine receptor M1 (Homo sapiens, UniProt P11229)
T4 sequence (P11229 whole entry): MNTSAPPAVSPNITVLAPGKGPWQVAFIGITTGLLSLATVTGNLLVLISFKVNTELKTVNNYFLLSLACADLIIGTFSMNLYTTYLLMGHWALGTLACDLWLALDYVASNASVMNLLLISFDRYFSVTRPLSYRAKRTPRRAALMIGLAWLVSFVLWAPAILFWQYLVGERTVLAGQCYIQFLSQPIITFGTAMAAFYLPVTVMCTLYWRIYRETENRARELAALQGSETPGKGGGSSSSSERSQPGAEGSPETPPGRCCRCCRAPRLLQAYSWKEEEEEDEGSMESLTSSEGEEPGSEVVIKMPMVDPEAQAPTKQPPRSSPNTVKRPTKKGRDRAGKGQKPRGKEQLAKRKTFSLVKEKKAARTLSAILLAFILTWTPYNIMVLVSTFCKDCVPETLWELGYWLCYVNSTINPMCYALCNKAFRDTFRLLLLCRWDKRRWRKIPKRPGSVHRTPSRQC
Source text: as §1

[11] = molecular target: Delta-type opioid receptor (Homo sapiens, UniProt P41143)
Sequence of Delta-type opioid receptor (P41143 whole entry): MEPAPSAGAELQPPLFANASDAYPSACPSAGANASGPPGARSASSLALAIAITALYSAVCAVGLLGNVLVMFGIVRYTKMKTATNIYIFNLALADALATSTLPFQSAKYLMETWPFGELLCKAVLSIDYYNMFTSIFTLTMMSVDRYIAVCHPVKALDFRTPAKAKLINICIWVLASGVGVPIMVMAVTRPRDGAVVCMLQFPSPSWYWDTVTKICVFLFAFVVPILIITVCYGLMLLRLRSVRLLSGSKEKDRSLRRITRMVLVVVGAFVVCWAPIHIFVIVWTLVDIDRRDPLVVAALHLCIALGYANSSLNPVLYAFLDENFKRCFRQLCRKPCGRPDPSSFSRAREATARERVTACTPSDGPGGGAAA
Source text: as §1

[12] = molecular target: 5-hydroxytryptamine receptor 1D (Homo sapiens, UniProt P28221)
Sequence of 5-hydroxytryptamine receptor 1D (P28221 whole entry): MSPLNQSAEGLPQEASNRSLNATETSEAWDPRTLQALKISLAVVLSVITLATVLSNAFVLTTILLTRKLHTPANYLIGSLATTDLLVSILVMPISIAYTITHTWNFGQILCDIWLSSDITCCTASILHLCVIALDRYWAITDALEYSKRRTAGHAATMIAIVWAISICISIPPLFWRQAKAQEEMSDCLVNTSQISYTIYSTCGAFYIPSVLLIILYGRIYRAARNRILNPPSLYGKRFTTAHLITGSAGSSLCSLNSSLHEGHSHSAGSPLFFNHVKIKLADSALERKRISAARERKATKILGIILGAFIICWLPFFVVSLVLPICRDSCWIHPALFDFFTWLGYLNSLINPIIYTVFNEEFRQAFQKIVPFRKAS
Source text: as §1

[13] = molecular target: 5-hydroxytryptamine receptor 2A (Homo sapiens, UniProt P28223)
Sequence of 5-hydroxytryptamine receptor 2A (P28223 whole entry): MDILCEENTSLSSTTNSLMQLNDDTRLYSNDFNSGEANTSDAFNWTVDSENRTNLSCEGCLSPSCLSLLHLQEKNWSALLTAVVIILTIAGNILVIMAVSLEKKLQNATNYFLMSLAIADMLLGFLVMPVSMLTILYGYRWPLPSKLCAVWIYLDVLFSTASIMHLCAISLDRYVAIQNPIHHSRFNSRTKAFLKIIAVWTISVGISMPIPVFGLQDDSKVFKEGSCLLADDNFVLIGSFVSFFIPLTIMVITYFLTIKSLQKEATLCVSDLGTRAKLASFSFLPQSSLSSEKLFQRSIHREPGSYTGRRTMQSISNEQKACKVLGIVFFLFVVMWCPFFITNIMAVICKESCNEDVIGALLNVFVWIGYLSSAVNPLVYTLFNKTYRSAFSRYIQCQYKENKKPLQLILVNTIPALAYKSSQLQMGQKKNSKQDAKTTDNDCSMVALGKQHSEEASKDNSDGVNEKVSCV
Source text: as §1

[14] = molecular target: T5, Muscarinic acetylcholine receptor M2 (Homo sapiens, UniProt P08172)
T5 sequence (P08172 whole entry): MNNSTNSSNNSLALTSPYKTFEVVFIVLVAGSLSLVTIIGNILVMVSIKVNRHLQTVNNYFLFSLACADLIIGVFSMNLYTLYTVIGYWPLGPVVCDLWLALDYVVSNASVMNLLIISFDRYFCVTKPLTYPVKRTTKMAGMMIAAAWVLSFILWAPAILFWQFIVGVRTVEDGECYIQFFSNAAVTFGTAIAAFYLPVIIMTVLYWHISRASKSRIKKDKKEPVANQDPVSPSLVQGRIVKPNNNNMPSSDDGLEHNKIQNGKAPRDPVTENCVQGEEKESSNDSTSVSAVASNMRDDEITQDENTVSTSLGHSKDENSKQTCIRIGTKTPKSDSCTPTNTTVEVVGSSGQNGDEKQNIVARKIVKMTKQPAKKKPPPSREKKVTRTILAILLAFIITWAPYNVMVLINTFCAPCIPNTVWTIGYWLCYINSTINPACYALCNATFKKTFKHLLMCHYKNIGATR
Source text: as §1

[15] = molecular target: Sodium-dependent dopamine transporter (Homo sapiens, UniProt Q01959)
Sequence of Sodium-dependent dopamine transporter (Q01959 whole entry): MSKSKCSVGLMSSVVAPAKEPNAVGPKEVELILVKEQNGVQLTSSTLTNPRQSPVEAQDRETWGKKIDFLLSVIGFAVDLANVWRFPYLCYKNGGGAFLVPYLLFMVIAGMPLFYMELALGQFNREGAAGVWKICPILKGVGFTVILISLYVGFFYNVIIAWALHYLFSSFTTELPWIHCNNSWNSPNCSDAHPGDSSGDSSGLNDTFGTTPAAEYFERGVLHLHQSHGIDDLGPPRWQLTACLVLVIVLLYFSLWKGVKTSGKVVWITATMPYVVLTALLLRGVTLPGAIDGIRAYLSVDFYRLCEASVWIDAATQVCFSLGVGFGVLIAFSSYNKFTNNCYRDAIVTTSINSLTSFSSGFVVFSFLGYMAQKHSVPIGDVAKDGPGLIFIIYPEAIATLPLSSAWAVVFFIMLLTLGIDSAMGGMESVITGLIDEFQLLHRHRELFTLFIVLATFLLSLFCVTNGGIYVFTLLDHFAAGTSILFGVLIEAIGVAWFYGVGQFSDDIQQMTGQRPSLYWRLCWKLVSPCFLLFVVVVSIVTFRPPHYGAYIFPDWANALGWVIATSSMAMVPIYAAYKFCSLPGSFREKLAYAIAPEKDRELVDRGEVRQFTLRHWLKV
Source text: as §1

Sequence of Histamine H1 receptor (P35367 whole entry): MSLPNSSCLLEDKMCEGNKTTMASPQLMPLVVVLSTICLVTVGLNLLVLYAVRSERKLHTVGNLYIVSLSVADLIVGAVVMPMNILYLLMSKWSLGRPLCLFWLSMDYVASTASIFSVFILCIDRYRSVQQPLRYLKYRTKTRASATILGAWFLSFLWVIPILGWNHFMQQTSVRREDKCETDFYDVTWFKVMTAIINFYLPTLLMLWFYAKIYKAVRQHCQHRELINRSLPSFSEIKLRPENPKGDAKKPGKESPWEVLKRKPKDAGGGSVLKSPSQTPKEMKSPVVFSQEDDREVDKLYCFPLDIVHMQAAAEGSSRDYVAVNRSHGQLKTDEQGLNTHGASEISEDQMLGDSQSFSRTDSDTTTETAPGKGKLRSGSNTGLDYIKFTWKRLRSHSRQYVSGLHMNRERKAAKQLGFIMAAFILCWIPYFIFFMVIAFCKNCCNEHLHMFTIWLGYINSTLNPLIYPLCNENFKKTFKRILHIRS
Sequence of Histamine H4 receptor (Q9H3N8 whole entry): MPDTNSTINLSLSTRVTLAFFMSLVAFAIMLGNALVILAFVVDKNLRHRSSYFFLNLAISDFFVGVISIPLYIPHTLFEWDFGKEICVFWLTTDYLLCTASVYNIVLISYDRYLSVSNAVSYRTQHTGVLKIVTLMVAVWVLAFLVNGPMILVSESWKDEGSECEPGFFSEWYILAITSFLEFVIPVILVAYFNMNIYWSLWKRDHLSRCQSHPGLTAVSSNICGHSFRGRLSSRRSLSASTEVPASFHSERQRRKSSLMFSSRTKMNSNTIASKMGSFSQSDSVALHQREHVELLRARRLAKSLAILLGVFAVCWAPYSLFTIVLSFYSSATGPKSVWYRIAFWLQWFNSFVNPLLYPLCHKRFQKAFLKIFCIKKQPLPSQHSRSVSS

SMILES | Ki [1] [µM] | Ki [2] [µM] | Ki [3] [µM] | Ki [4] [µM] | Ki [5] [µM] | Ki [6] [µM] | Ki [7] [µM] | Ki [8] [µM] | Ki [9] [µM] | Ki [10] [µM] | Ki [11] [µM] | Ki [12] [µM] | Ki [13] [µM] | Ki [14] [µM] | Ki [15] [µM]
CCOc1cc(OC)c(CC(C)N)cc1OC (stereo not drawn) | > 10 | > 10 | > 10 | > 10 | > 10 | > 10 | > 10 | > 10 | > 10 | > 10 | > 10 | > 10 | 3.95 | > 10 | > 10
COc1cc(CCN)c(OC)cc1Br | > 10 | > 10 | 0.104 | 0.309 | > 10 | > 10 | > 10 | > 10 | 3.37 | > 10 | > 10 | 0.0263 | 0.0276 | > 10 | > 10
CCSc1cc(OC)c(CC(N)CC)cc1OC (stereo not drawn) [1-(4-Ethylsulfanyl-2,5-dimethoxy-benzyl)-propylamine] | > 10 | > 10 | > 10 | > 10 | > 10 | > 10 | > 10 | > 10 | > 10 | > 10 | > 10 | > 10 | 0.274 | > 10 | > 10
CN(C)CCc1c[nH]c2ccccc12 [2-(1H-indol-3-yl)-N,N-dimethylethanamine] | > 10 |  | > 10 | 1.56 |  | 1.75 | > 10 | > 10 | > 10 | > 10 |  | 0.093 | 2.32 | > 10 | > 10
CCc1cc(OC)c(CCN)cc1OC [2-(2,5-dimethoxy-4-ethylphenyl)ethylamine] | > 10 | > 10 | 0.253 | 0.49 | > 10 | > 10 | > 10 | > 10 | 3.34 | > 10 | > 10 | 0.0732 | 0.0439 | > 10 | > 10
COc1cc(CC(C)N)c(OC)cc1Br (stereo not drawn) [2-(4-Bromo-2,5-dimethoxy-phenyl)-1-methyl-ethylamine((-)-DOB)] | > 10 | 9.12 | 0.941 | 4.27 | > 10 | > 10 | > 10 | > 10 | > 10 | > 10 | > 10 | 0.635 |  | > 10 | > 10
CCSc1cc(OC)c(CC(C)N)cc1OC (stereo not drawn) [2-(4-Ethylsulfanyl-2,5-dimethoxy-phenyl)-1-methyl-ethylamine] | > 10 | > 10 | 2.04 | 5.8 | > 10 | > 10 | > 10 | > 10 | > 10 | > 10 | > 10 | 1.53 | 0.0604 | > 10 | > 10
CCSc1cc(OC)c(CCN)cc1OC [2C-T-2] | > 10 | > 10 | 0.858 | 0.73 | > 10 | > 10 | > 10 | > 10 | 2.79 | > 10 | > 10 | 0.0859 | 0.0399 | > 10 | > 10
COc1cc(CCN)cc(OC)c1OC [3,4,5-trimethoxyphenylethylamine] | > 10 | > 10 | > 10 | 8.93 | > 10 | > 10 | > 10 | > 10 | > 10 | > 10 | > 10 | > 10 | > 10 | > 10 | > 10
COc1ccc2[nH]cc(CCN(C(C)C)C(C)C)c2c1 [5-meo-dipt] | > 10 | > 10 |  | > 10 | > 10 | > 10 | > 10 | > 10 | > 10 | > 10 | > 10 | 1.72 |  | > 10 | > 10
COc1ccc2[nH]cc(CCN(C)C(C)C)c2c1 [5-meo-mipt] | > 10 | 4.82 | 0.303 | 0.175 | > 10 | > 10 | > 10 | 6.33 | > 10 | > 10 | > 10 | 0.0225 | 0.448 | > 10 | > 10
CN(C)CCc1c[nH]c2cc(F)ccc12 [6-f-dmt] | > 10 | 0.0466 | 0.218 | > 10 | > 10 | 0.173 | > 10 | 1.45 | 0.61 | > 10 | > 10 | 0.0554 |  | > 10 | > 10
COc1cc(CC(C)N)c(OC)cc1C (stereo not drawn) [(+/-)2-(2,5-Dimethoxy-4-methyl-phenyl)-1-methyl-ethylamine] | > 10 | > 10 | > 10 | 0.58 | > 10 | 3.22 | > 10 | > 10 | > 10 | > 10 | > 10 | 0.209 | 0.507 | > 10 | > 10
